Source: patent publication US20160108431A1, “PREVENTION AND TREATMENT OF ATRIAL FIBRILLATION” (ISIS INNOVATION LIMITED, priority 2013, published 2016)
Entries after “also recorded” stand apart in the source; their conditions may differ. Where a SMILES comes first, the peptide text is derived from it. The star is where a group is joined. Cbz = O=C(OCc1ccccc1)*

Experiments:
human RA myocytes = assay: Action potential duration (APD) and APD rate adaptation in isolated human right atrial myocytes; assay type: cell-based
Excerpt: All abbreviations are as defined in FIG. 1.
9b. […] Representative AP traces in RA myocytes from patients in SR exposed to 2 doses of 4-AP in the presence or absence of nNOS inhibition with SMTC.
A shorter APD leads to reduced atrial refractoriness and promote AF sustainability. […] These findings indicate that loss of myocardial nNOS signalling is sufficient to produce an atrial electrical substrate that increases both the inducibility and maintenance of AF.

nNOS protein [1] = assay: nNOS protein in human atrial tissue in AF after inhibition of the proteosomal system or autophagy; assay type: cell-based; details: human RA, MG132 5 μmol/L, bafilomycin 25 nmol/L
Description: In the presence of AF, ubiquitination of nNOS protein is increased in human atrial tissue as shown by immunoprecipitation. Protein load of AF samples was increased to match the nNOS content to that seen in SR; n=6 (a). […] All abbreviations are as defined in FIG. 1.
In the skeletal muscle, nNOS protein stability is determined by the enzyme's anchoring to the dystrophin-syntrophin complex. We found a reduction in dystrophin (FIG. 4c, 4d, 4f) and dystrophin-associated proteins (e.g., caveolin-3 and α1-syntrophin, 4c, 4e), and a disruption of the dystrophin-nNOS complex in AF (FIG. 4a, 4b). In humans, atrial nNOS and dystrophin were strongly correlated (FIG. 4g), in keeping with the notion that disruption of the dystrophin-syntrophin complex promotes ubiquitin-dependent nNOS degradation in AF.

[2] = system: nNOS mRNA on the RISC complex; assay: Ribonucleoprotein immunoprecipitation with Ago2 (RISC), nNOS mRNA; assay type: cell-based, human; details: RA myocytes from AF patients; TSB 20 nM, 48-72 hours; normalized to miR31 in RISC
Description: 12a-b. (a) Immunoprecipitation of the RNA-induced silencing effector complex (RISC) protein, Argonaut 2 (Ago2) in RAA myocytes isolated from patients with AF transiently (48-72 hours) transfected with 20 nM of an locked nucleic acids (LNA)-based miR31 target site blocker (TSB, Exiqon) or with corresponding scrambled control (scr, 20 nM, Exiqon). Further details on the sequence of the TSB and scr control, also see FIG. 13). Molecular weight is shown in kilodalton (kDa); Rb IgG—rabbit immunoglobulin G (as negative control); IP—immunoprecipitation, IB—immunoblotting. (b) miR31 expression is unchanged in Ago2 immunoprecipitates from RAA human myocytes.
12c-f. (c) Sequence of the mature human miR31 (hsa-miR31), 23-nucleotide region of the human DYS-3′UTR, the miR31 hairpin inhibitor (anti-miR31, miRIDIAN, Dharmacon) and the 18-nucleotide-long locked nucleic acids (LNA)-based Target Site Blocker (TSB) covering the miR31-binding site on the DYS-3′UTR (TSB_DYS). (d) Sequences of the mature hsa-miR-31, 23-nucleotide region of the human nNOS-3′UTR, the anti-miR31 (miRIDIAN, Dharmacon) and the 18-nucleotide-long TSB covering the miR31-binding site on the nNOS 3′UTR (TSB_nNOS). The miR-31 seed sequence is in grey. […]
(§1) The corresponding mRNA stability was assessed in the presence of a miR-31 mimic (10 nM) in SR myocytes treated with the transcription inhibitor, actinomycin D (5 μg/ml).

dystrophin (DYS) protein = assay: Dystrophin protein content (immunoblot) in transfected human atrial myocytes; assay type: cell-based
nNOS protein [3] = assay: nNOS protein content (immunoblot) in transfected human atrial myocytes; assay type: cell-based
Excerpt: (§2) RQ—relative quantification, DYS—dystrophin; all other abbreviations are as defined in FIG. 1.
(§3) By contrast, treatment with miR31 mimic has no effect on the DYS mRNA in either SR (n=12) or AF (n=10). *P<0.05, **P<0.01 ***P<0.001 vs controls in SR and #P<0.05, ##P[…], ###P<0.001 vs negative control (NC) using 1-way ANOVA with Bonferroni correction. Dystrophin and nNOS gene expression were normalized to GAPDH.
(§4) 12g-m. […] By contrast, miR31 mimic has no effect on the decay of the DYS mRNA (h).

DYS mRNA [4] = assay: DYS mRNA (gene expression) in transfected human atrial myocytes; assay type: cell-based; details: for DYS mRNA (expression): SR myocytes, mimic 10 nM, 72 hours (FIG. 10)
Excerpt: as §3, §4

nNOS mRNA [5] = assay: nNOS mRNA (gene expression) in transfected human atrial myocytes; assay type: cell-based
Excerpt: as §3, §4

human nNOS 3′UTR = assay: GFP reporter assay in HEK293 cells, nNOS 3′UTR constructs; assay type: cell-based; details: HEK293, co-transfected 48 hours, mimic 10 nM
Description: 11a. Predicted conserved (site 1) and poorly conserved (sites 2, 3, 4 and 5) miR31-5p binding sites on the human nNOS 3′UTR.
11b. HEK293 cells were co-transfected (48 hours) with reporter constructs containing 2 fragments (˜500 bp) of the nNOS 3′UTR region containing the mir31 binding putative sites (Part1, site 1 & 2 and Part2, sites 3, 4 & 5) and a miR31 mimic (10 nM, miRIDIAN, Dharmacon). […] Further analysis of Part 2, identified site 5 as the functional mir31 site on the nNOS 3′ UTR.

DYS mRNA [6] = assay: DYS mRNA stability in the presence of actinomycin D; assay type: cell-based, human; details: SR myocytes; actinomycin D 5 μg/ml; mimic 10 nM; listed as miR31 mimic
Description: as §4, §1

DYS 3′UTR = assay: GFP reporter assay in HEK293 cells, DYS 3′UTR construct; assay type: cell-based, human; details: HEK293, co-transfected 48 hours
Description: 11c. HEK293 cells were co-transfected (48 hours) with reporter constructs containing the DYS 3′UTR region containing the mir31 binding putative site. […] Reporter assays were performed in triplicates and are representative of at least 3 independent experiments. ###P<0.001 vs vehicle, repeated-measure ANOVA with Bonferroni correction.

miR-31 = miR-31 expression in transfected isolated human atrial myocytes; assay type: cell-based; details: for miR31 levels: RAA myocytes; for miR-31 expression: 20 nM, 48-72 hours
Excerpt: as §2
8a. […] Data are expressed as fold change to the controls in SR.
as §3
We hypothesised that a microRNA-mediated translational repression of dystrophin in AF may account for the loss of myocardial nNOS and constitute a novel mechanism underlying AF-induced electrical remodelling.

nNOS mRNA [7] = assay: nNOS mRNA stability in the presence of actinomycin D; assay type: cell-based, human; details: SR myocytes; actinomycin D 5 μg/ml; mimic 10 nM
Description: as §4, §1

[8] = myocytes from patients with AF, 20 nM, 48-72 hours
[9] = myocytes from patients with AF, 20 nM, 48-72 hours, listed as nNOS-TSB
[10] = SR myocytes, mimic 10 nM, 72 hours (FIG. 10), listed as miR31 mimic
[11] = SR myocytes, mimic 10 nM, 72 hours (FIG. 10), listed as miRIDIAN miR-31 mimic
[12] = myocytes from patients in SR, 20 nM, 48-72 hours
[13] = SR myocytes, mimic 10 nM, 72 hours

Nc1ccncc1 [4-AP]
APD (human RA myocytes; RA myocytes from patients in SR, 2 doses of 4-AP (100 and 500)): prolong APD | difference in APD induced by SMTC (human RA myocytes; RA myocytes from patients in SR, 4-AP 100 and 500, with or without SMTC): abolish the difference in APD induced by SMTC | APD rate dependent adaptation (human RA myocytes; human RA myocytes, 4-AP): restores the APD rate dependent adaptation

CC(C)C[C@@H](C=O)NC(=O)[C@H](CC(C)C)NC(=O)[C@H](CC(C)C)NC(=O)OCc1ccccc1 [MG132] (Cbz-Leu-Leu-Leu-aldehyde)
nNOS protein content (nNOS protein [1]): partially restores nNOS protein; also recorded: partially restored nNOS content

CO/C1=C\C(C)=C\[C@@H](C)[C@@H](O)[C@@H](C)C/C(C)=C/C=C/[C@H](OC)[C@@H]([C@@H](C)[C@@H](O)[C@H](C)[C@@]2(O)C[C@@H](O)[C@H](C)[C@@H](C(C)C)O2)OC1=O [bafilomycin A1]
nNOS protein content (nNOS protein [1]; listed as bafilomycin): had no effect

TSB_nNOS: 18-nucleotide-long TSB covering the miR31-binding site on the nNOS 3′UTR (LNA-based, Exiqon) (DNA TGGCAAGAATGAAAAGGC; LNA-based target site blocker, LNA pattern not given here)
loading of nNOS mRNA on the RISC complex (Ago2 immunoprecipitation) [2]: selectively prevented loading; also recorded: reduction | dystrophin (DYS) protein content (dystrophin (DYS) protein; [8]): without affecting | nNOS protein content (nNOS protein [3]; [8]): partially recovered nNOS protein | nNOS protein content (nNOS protein [3]; [9]): recovered nNOS | DYS mRNA (DYS mRNA [4]; [8]): without affecting | nNOS mRNA (gene expression) (nNOS mRNA [5]; [8]): increased nNOS mRNA | nNOS mRNA (gene expression) (nNOS mRNA [5]; [9]): significantly increased

miR-31 mimic: miRIDIAN miR-31 mimic (Dharmacon) (AGGCAAGATGCTGGCATAGCT; listed as DNA, chemistry not given here)
GFP fluorescence, wild type (WT) Part 2 nNOS 3′UTR construct (human nNOS 3′UTR): reduction in miR31-mediated GFP fluorescence | reduction in GFP fluorescence, mutated (Mut) nNOS 3′UTR constructs lacking miR31 binding site (human nNOS 3′UTR): abolished | decay of DYS mRNA (DYS mRNA [6]): has no effect | dystrophin protein (dystrophin (DYS) protein; AF myocytes, mimic (FIG. 10)): reduces | dystrophin (DYS) protein content (dystrophin (DYS) protein; [10]): reduces | dystrophin (DYS) protein content (dystrophin (DYS) protein; [11]): reduced | dystrophin (DYS) protein content (dystrophin (DYS) protein; [12]): dramatically reduced | dystrophin (DYS) protein content (dystrophin (DYS) protein; [8]): dramatically reduced | nNOS protein (nNOS protein [3]; AF myocytes, mimic (FIG. 10)): reduces | nNOS protein content (nNOS protein [3]; [10]): reduces | nNOS protein content (nNOS protein [3]; [11]): reduced | nNOS protein content (nNOS protein [3]; [12]): dramatically reduced | nNOS protein content (nNOS protein [3]; [8]): dramatically reduced | DYS mRNA (DYS mRNA [4]; AF myocytes, mimic (FIG. 10)): has no effect | DYS mRNA (expression) (DYS mRNA [4]; listed as miR31 mimic): has no effect | DYS mRNA (expression) (DYS mRNA [4]; listed as miRIDIAN miR-31 mimic): without affecting | APD (human RA myocytes; [13]): shortened APD | APD rate-dependent adaptation (human RA myocytes; [13]): abolished the APD rate-dependent adaptation | GFP fluorescence, wild type (WT) DYS 3′UTR construct (DYS 3′UTR): reduction in miR31-mediated GFP fluorescence | reduction in GFP fluorescence, mutated (Mut) DYS 3′UTR constructs lacking miR31 binding site (DYS 3′UTR): abolished | miR31 levels (miR-31; AF, mimic (FIG. 10)): increases mir31 levels | miR31 levels (miR-31; SR, mimic 10 nM, 72 hours (FIG. 10)): increases mir31 levels | miR-31 expression (miR-31; myocytes from patients in SR): upregulation of miR-31 | miR-31 expression (miR-31; myocytes from patients with AF): upregulation of miR-31 | nNOS gene expression (nNOS mRNA [5]; AF myocytes, mimic (FIG. 10)): reduces | nNOS mRNA (gene expression) (nNOS mRNA [5]; [10]): reduces | nNOS mRNA (gene expression) (nNOS mRNA [5]; [11]): reduced | decay of nNOS mRNA (nNOS mRNA [7]): accelerated the decay of nNOS mRNA
